Measurements from ChEMBL document CHEMBL1201862, “PubChem BioAssay data set” (2004).
The source made the active and inactive calls.

Columns and labels:
[1] = target: T1, Trace amine-associated receptor 1 (Homo sapiens, UniProt Q96RJ0); test: Fluorescence-based cell-based high throughput dose response assay to identify agonists of the human trace amine associated receptor 1 (TAAR1).; assay type: functional
[2] = cells; assay type: functional, cell-based
[3] = cells; assay type: functional, cell-based; remark: listed apart in the source
[4] = target: T1, Trace amine-associated receptor 1; test: Counterscreen for agonists of the human trace amine associated receptor 1 (hTAAR1): Fluorescence-based cell-based high throughput dose response assay to identify hTAAR1 agonist that also desensitize TAAR1 receptor response.; assay type: functional
[5] = target: Endoplasmic reticulum aminopeptidase 1 (Homo sapiens, UniProt Q9NZ08); test: ERAP1 aminopeptidase inhibitors, dose response, biochemical, cherry-pick, set 2, plate reader (AID 743314)
Sequence of Endoplasmic reticulum aminopeptidase 1 (Q9NZ08 whole entry): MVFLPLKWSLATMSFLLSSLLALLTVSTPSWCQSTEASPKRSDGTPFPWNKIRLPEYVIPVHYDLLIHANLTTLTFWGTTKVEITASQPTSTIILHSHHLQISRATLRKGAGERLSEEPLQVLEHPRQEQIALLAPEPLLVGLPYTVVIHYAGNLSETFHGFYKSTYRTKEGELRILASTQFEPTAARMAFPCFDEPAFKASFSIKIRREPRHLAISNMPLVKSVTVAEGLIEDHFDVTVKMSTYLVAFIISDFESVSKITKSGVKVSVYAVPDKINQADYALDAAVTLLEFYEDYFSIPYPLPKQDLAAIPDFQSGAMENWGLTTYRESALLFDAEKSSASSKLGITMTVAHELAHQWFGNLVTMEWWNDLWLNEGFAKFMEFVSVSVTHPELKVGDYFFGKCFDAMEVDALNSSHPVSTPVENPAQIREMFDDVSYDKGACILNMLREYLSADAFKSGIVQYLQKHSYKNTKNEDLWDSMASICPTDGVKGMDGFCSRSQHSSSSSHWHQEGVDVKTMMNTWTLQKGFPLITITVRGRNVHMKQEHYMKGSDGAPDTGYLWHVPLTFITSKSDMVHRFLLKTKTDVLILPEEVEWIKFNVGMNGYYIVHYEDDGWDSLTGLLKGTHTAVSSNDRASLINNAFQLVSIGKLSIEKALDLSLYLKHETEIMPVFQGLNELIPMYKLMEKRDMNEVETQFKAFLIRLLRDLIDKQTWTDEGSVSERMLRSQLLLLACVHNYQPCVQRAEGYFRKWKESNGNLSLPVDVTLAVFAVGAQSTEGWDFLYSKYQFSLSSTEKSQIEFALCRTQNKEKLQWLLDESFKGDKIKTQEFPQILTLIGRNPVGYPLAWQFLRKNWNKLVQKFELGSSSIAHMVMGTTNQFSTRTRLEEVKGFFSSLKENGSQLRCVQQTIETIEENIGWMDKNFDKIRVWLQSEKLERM

[6] = miR-122 activators in hepatoma reporter cells, dose response, cell-based, Huh7 psiCHECK-miR122, Renilla luciferase, cherry-picked (AID 651956); assay type: functional;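 further: huh7 hepatoma cells stably carrying a psiCHECK-2 miR-122 sensor plasmid; renilla luciferase signal reporting endogenous miR-122 activity after 48 h compound exposure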
[7] = HEK293T cytotoxicity, dose response, cytotoxicity control for miR-122 modulator project, cell-based, activator set, cherry-pick (AID 720690); assay type: functional;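 further: HEK293T human cells scored for general mammalian cytotoxicity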
[8] = target: Paired box protein Pax-8 (Homo sapiens, UniProt Q06710); test: inhibitors of PAX8-driven TPO luciferase reporter, dose response, RMG-I cells, cherry-pick (AID 687027); assay type: functional, cell-based;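 further: luciferase reporter driven by Pax8 target thyroperoxidase promoter measured by SteadyGlo luminescence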
Sequence of Paired box protein Pax-8 (Q06710 whole entry): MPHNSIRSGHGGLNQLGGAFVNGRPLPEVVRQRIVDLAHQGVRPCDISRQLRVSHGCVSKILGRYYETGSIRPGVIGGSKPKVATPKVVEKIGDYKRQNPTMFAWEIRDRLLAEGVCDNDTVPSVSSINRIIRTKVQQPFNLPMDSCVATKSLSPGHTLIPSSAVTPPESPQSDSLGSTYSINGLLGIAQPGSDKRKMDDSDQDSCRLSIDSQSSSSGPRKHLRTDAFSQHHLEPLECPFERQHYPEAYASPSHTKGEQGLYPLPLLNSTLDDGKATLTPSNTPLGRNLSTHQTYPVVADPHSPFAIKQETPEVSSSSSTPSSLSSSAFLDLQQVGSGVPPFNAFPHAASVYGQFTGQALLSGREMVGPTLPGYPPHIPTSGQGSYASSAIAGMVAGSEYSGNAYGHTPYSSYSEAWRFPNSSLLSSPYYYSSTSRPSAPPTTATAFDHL

[9] = cytotoxicity in OVCAR8 ovarian cancer cells, dose response, PAX8 project, cell-based, plate reader, dry powder samples (AID 743197); assay type: functional; settings: OVCAR-8
[10] = HEK293T cytotoxicity, dose response, cytotoxicity control for miR-122 modulator project, cell-based, inhibitor set, cherry-pick, set 2 (AID 720697); assay type: functional
[11] = IGROV1 ovarian cancer cell cytotoxicity, dose response, PAX8 inhibitor project, plate reader, dry powder samples (AID 743043); assay type: functional, cell-based; settings: IGROV-1
[12] = inhibitors of CMV-promoter luciferase reporter, dose response, counter-screen for Pax8 inhibitor project, cell-based, HEK293, luminescence, dry powder (AID 743020); assay type: functional
[13] = cells; assay type: functional, cell-based; settings: HEK-CNG
[14] = control 3'UTR Renilla luciferase suppression, dose response, counter-screen for Shn3 inhibitor project, cell-based, Clone20-Shn3RL, cherry-picked (AID 624133); assay type: functional
[15] = target: T2, Galanin receptor type 3 (Homo sapiens, UniProt O60755); test: Fluorescence-based cell-based primary high throughput dose response assay to identify antagonists of the Galanin Receptor 3 (GalR3).; assay type: functional
T2 sequence (O60755 whole entry): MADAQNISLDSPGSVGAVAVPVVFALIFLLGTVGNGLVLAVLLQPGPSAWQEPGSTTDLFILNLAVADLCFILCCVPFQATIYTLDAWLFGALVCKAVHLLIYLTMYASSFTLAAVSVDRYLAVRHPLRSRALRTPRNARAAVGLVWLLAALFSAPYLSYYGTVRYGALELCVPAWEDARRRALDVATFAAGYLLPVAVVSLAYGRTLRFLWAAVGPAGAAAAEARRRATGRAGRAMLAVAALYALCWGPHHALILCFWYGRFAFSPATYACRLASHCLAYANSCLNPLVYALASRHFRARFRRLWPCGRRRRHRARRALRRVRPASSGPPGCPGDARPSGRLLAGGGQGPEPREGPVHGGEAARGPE

[16] = inhibitors of control Renilla luciferase reporter, dose response, counter-screen for Shn3 3'UTR targeting project, Clone20-Shn3RL cells, dual-Glo, cherry-pick, set 2 (AID 720724); assay type: functional, cell-based; settings: Dual-Go Shn3RL
[17] = reduction of Shn3 3'UTR firefly luciferase signal, dose response, Schnurri-3 inhibitor project, cell-based, Clone20 osteoblasts, cherry-pick, set 2 (AID 720490); assay type: functional;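 further: actives lower the luminescence signal as inhibitors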
[18] = HepG2 cell cytotoxicity, dose response, cytotoxicity control for Shn3 inhibitor project, CellTiter-Glo, cherry-picked (AID 624134); assay type: functional, cell-based
[19] = Shn3 3'UTR reporter inhibitors, dose response, cell-based, Clone20 osteoblasts, firefly luciferase, cherry-picked (AID 624132); assay type: functional;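 further: firefly luciferase luminescence from reporter carrying the Shn3 3'UTR in osteoblasts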
[20] = growth suppression of beta-catenin-knockout colon cells, dose response, cell-based, HCT116, human colon tumor (AID 1045); assay type: functional;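 further: HCT116 colon tumor cells with beta catenin knocked out; cells exposed to compound for 60 hours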
[21] = A Cell-Based Confirmatory Screen for Compounds that Inhibit VEEV, TC-83 (8).; assay type: functional
[22] = A Cell-Based Confirmatory Screen for Compounds that Inhibit VEEV, TC-83 (6).; assay type: functional
[23] = cells
[24] = cytotoxicity in HEK-293T cells, dose response, cytotoxicity control for TCR NF-kB inhibitor project, luminescence, T-cell screen hits (AID 489026); assay type: functional, cell-based;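 further: cells exposed to compound about 14 hours before the viability readout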
[25] = Counterscreen for activators of the function of SWI/SNF related, matrix associated, actin dependent regulator of chromatin, subfamily a, member 2 (SMARCA2, BRM): Luminescence-based cell-based high throughput dose response assay to identify non-selective compounds using the VP16 reporter assay.; assay type: functional
[26] = inhibitors of intracellular T. cruzi replication, confirmation, NIH3T3 host cells, beta-gal luminescence (AID 2044); assay type: functional, cell-based;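 further: intracellular parasites grown in NIH/3T3 mouse fibroblasts as host cells; luminescent beta-galactosidase reporter signal from transgenic T. cruzi replicating inside host cells; inhibitors lower the luminescence signal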
[27] = cytotoxicity toward NIH3T3 fibroblasts, dose response, counter-screen, cell-based, ATP luminescence, mouse fibroblasts (AID 2010); assay type: functional;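 further: cells exposed to compound for about 90 hours before reading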
[28] = target: Metabotropic glutamate receptor 3 (Rattus norvegicus, UniProt P31422); test: mGlu3 negative allosteric modulator potency, dose response, HEK/GIRK cells, thallium flux, rat (AID 651839); assay type: functional
Sequence of Metabotropic glutamate receptor 3 (P31422 whole entry): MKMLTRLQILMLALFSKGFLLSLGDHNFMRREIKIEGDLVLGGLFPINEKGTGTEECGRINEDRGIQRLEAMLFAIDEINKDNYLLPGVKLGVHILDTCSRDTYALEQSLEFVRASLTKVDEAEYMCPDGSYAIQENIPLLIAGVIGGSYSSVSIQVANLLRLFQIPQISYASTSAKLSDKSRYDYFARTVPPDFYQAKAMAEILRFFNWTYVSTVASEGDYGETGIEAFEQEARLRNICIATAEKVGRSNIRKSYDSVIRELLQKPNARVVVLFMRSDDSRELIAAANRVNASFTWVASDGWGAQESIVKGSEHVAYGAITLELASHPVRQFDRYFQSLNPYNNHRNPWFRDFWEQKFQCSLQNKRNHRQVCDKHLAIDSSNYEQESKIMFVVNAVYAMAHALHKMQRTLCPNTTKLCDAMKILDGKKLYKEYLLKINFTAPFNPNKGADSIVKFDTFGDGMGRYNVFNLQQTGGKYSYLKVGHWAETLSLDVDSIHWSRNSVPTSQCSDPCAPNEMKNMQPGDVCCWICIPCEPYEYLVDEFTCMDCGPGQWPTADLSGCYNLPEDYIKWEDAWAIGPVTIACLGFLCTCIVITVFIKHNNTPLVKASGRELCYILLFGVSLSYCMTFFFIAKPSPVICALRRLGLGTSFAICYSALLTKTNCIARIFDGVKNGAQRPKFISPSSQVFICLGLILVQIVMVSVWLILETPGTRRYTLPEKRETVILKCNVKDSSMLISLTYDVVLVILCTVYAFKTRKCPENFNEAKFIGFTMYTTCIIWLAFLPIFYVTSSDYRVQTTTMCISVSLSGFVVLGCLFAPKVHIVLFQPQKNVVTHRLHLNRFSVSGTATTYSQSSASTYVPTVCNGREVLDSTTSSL

T1 sequence (Q96RJ0 whole entry): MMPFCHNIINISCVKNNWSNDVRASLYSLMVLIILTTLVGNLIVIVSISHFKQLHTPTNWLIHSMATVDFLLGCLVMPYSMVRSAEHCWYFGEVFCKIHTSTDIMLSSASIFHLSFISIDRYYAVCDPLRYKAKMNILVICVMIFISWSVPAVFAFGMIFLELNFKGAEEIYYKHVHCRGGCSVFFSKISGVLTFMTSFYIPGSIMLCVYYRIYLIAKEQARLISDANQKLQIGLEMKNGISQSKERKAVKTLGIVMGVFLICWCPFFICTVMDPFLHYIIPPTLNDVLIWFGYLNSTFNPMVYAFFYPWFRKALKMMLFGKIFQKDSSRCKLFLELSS

## Cc1ccc(NC(=O)CCN2CCc3ccccc3C2)cc1
[1]
  EC50: 1.12 µM (active)
[2]
  IC50: > 29.9 µM (inactive)
[3]
  EC50: > 29.9 µM (inactive)
[4]
  IC50: 7.46 µM (active)

## Cc1c(C)c2ccc(O)c(CN3CCCC3)c2oc1=O
[5]
  AC50: 7.31 µM (active)

## COc1ccc(CN(C)C[C@H]2OCCCC[C@H](C)Oc3ccc(NC(=O)Nc4ccc(C(F)(F)F)cc4)cc3C(=O)N([C@@H](C)CO)C[C@@H]2C)cc1
[6]
  AC50: 6.4 µM (active)
[7]
  AC50: 18.3 µM (active)
[8]
  AC50: 8.38 µM (active)
[9]
  AC50: > 70 µM (inactive)
[10]
  AC50: 11.3 µM (active)
[11]
  AC50: 53.8 µM (active)

## C[C@H](CO)N1C[C@H](C)[C@@H](CN(C)C(=O)Nc2cccc3ccccc23)OCCCC[C@H](C)Oc2ccc(NC(=O)c3ccncc3)cc2C1=O
[8]
  AC50: 3.61 µM (active)
[12]
  AC50: 49.1 µM (active)

## CCCOC(=O)c1ccc(OCC(O)Cn2c(C)nc3ccccc32)cc1 (centres undefined)
[13]
  EC50: > 29.9 µM (inactive)
[14]
  AC50: 8.49 µM (active)
[15]
  IC50: 1.57 µM (active)
[16]
  AC50: 5.13 µM (active)
[17]
  AC50: 3.38 µM (active)
[18]
  AC50: 35.6 µM (active)
[19]
  AC50: 620 nM (active)
[20]
  EC50: 14.6 µM (active)

## COc1ccc(-n2c(CN3CCNCC3)nc3ccc([N+](=O)[O-])cc3c2=O)cc1
[21]
  IC50: < 218 nM (active)
[22]
  IC50: < 220 nM (active)

## Nc1nc(O)c2[nH]nnc2n1 [8-AZAGUANINE]
[23]
  EC50: 153 nM (active)
[24]
  IC50: > 80 µM (inactive)
[25]
  EC50: > 91.2 µM (inactive)
[26]
  EC50: < 100 nM (active)
[27]
  EC50: 10.3 µM (active)

## COc1ccc(COc2ccc(C(=O)N3CCC[C@@H](CO)C3)cc2)cc1
[28]
  IC50: 6.84 µM (active)
